Measurements reported in US20090023784A1, “USE OF DEFERIPRONE AND METHODS TO TREAT AND/OR PREVENT FRIEDREICH ATAXIA RESULTING FROM INTRACELLULAR MISHANDLING OF IRON” (priority 2006, published 2009).
“Also recorded” adds a separate entry of the source.

Tested on: patients with Friedreich ataxia
Assay: Phase I-II open pilot trial: ICARS, Perdue Pegboard and parents' observations (patients kept on idebenone)
Type: in vivo, human
Details: for Perdue pegboard: number of nails inserted
Excerpt: Ten adolescents (four males, six females aged 14 to 23 yrs) with a diagnosis of Friedreich ataxia, confirmed by detection of a trinucleotide-repeat expansion in the first intron of the frataxin gene, were studied. Patients received deferiprone (Ferriprox™, Apotex Inc., Toronto, Canada) orally, in two doses for 1-5 months. Three patients were included, sequentially, for a minimum period of two months at each dose. Patient enrollment was staggered by two-weeks to enable monitoring of response. In the absence of toxicity, and with evidence of efficacy in any of the first 3 patients, a second group of 3 patients would be included at the same dose for a total duration of 6 months. If there was an absence of both efficacy and toxicity, the second group of three patients would be administered a higher dose. If toxicity developed, the current dose would be suspended and the trial resumed with the next group of patients at a lower dose. The patients were on idebenone (10 mg/kg/day, in three doses) for at least two years prior to inclusion and were kept on the drug at the same dose for the duration of the trial. MRI examinations were done at inclusion and at 1, 2, 4 and 6 months. The protocol was promoted by Assistance Publique-Hopitaux de Paris and approved by the local ethical committee and registered at the National Health Authority (AFSSAPS) and at the International Protocol Registration System (www.clinicaltrials.gov). A written informed consent was obtained from patients and parents.
The International Cooperative Ataxia Rating Score (ICARS) was used to assess the symptoms of ataxia before and after 1-5 months (Cano et al. International cooperative ataxia rating scale (ICARS): Appropriate for studies of Friedreich's ataxia? Mov Disord 2005; 20:1585-91). This scale has four subscales: posture and gait disturbance, kinetic functions, speech disorders and oculomotor disorders. Subscale scores are summed to give a total score ranging from 0 to 100. High scores indicated worse ataxia. The Perdue Pegboard test, which assesses speed of performance, delicate movements and manipulative dexterity, was included in the course of the study. This test assesses the ability of the participant to insert as many nails as possible into preset holes, linearly dug in a wooden board in a limited space of time (20 seconds with the two hands, separately and together). The tests were administered by the same investigator. Patients were monitored for neutropenia, agranulocytosis, musculoskeletal pains and zinc deficiency and had weekly blood counts, plasma iron, serum ferritin and transferrin concentration measurements, as well as assessments of renal and liver function.

[1] = patient eight, DFP 20 mg/kg, 4 mth, after trial
[2] = patient eight, DFP 20 mg/kg, 4 mth, prior to trial
[3] = patient five, DFP 30 mg/kg, 1 mth, after trial
[4] = patient five, DFP 30 mg/kg, 1 mth, prior to trial
[5] = patient four, DFP 20 mg/kg, 2 mth, after trial
[6] = patient four, DFP 20 mg/kg, 2 mth, prior to trial
[7] = patient one, DFP 20 mg/kg, 5 mth, after trial
[8] = patient one, DFP 20 mg/kg, 5 mth, prior to trial
[9] = patient six, DFP 30 mg/kg, 1 mth, after trial
[10] = patient six, DFP 30 mg/kg, 1 mth, prior to trial
[11] = patient three, DFP 20 mg/kg, 2 mth, after trial
[12] = patient three, DFP 20 mg/kg, 2 mth, prior to trial
[13] = patient two, DFP 20 mg/kg, 3 mth, after trial
[14] = patient two, DFP 20 mg/kg, 3 mth, prior to trial

Cc1c(O)c(=O)ccn1C [Deferiprone, 3-hydroxy-1,2-dimethylpyridin-4-one]
time to disappearance of constipation, incontinence and some subjective signs of peripheral neuropathy (20 mg/kg/day oral): 1-2 months
neurological condition noted by parents and uninformed relatives (20 mg/kg/day oral, within a few weeks, all treated patients): unexpected neurological improvement
changes of the ICARS scores (20 mg/kg/day, short period of the trial): mild changes of the ICARS scores
Perdue Pegboard test: speed of performances and dexterity (30 mg/kg/day oral, before and 1-2 months after onset): improvement of speed of performances and dexterity
Kinetic function (/29) [1]: 7
Oculomotor disorder (/6) [1]: 2
Posture and gait disturbance: 7 items (/34) [1]: 9
Posture and gait disturbance: gait speed [1]: 1
Posture and gait disturbance: spread feet [1]: 3
Posture and gait disturbance: standing eyes open [1]: 1
Posture and gait disturbance: walking [1]: 2
Speech disorder (/8) [1]: 2
Total ICARS (/100) [1]: 20
Observation (patient eight, DFP 20 mg/kg, 4 mth, listed as DFP): no more incontinence, improved gait and balance, warming; also recorded: up of feet
Kinetic function (/29) [2]: 7
Oculomotor disorder (/6) [2]: 2
Posture and gait disturbance: 7 items (/34) [2]: 12
Posture and gait disturbance: gait speed [2]: 1
Posture and gait disturbance: spread feet [2]: 3
Posture and gait disturbance: standing eyes open [2]: 2
Posture and gait disturbance: walking [2]: 3
Speech disorder (/8) [2]: 2
Total ICARS (/100) [2]: 23
Kinetic function (/29) [3]: 8
Oculomotor disorder (/6) [3]: 2
Posture and gait disturbance: 7 items (/34) [3]: 8
Posture and gait disturbance: gait speed [3]: 2
Posture and gait disturbance: spread feet [3]: 0
Posture and gait disturbance: standing eyes open [3]: 1
Posture and gait disturbance: walking [3]: 2
Speech disorder (/8) [3]: 2
Total ICARS (/100) [3]: 20
Observation (patient five, DFP 30 mg/kg, 1 mth, listed as DFP): no more constipation, incontinence and bending, improved; also recorded: balance and gait
Kinetic function (/29) [4]: 8
Oculomotor disorder (/6) [4]: 2
Posture and gait disturbance: 7 items (/34) [4]: 11
Posture and gait disturbance: gait speed [4]: 2
Posture and gait disturbance: spread feet [4]: 1
Posture and gait disturbance: standing eyes open [4]: 2
Posture and gait disturbance: walking [4]: 2
Speech disorder (/8) [4]: 2
Total ICARS (/100) [4]: 23
Kinetic function (/29) [5]: 12
Oculomotor disorder (/6) [5]: 0
Posture and gait disturbance: 7 items (/34) [5]: 13
Posture and gait disturbance: gait speed [5]: 1
Posture and gait disturbance: spread feet [5]: 2
Posture and gait disturbance: standing eyes open [5]: 1
Posture and gait disturbance: walking [5]: 3
Speech disorder (/8) [5]: 2
Total ICARS (/100) [5]: 27
Perdue pegboard [5]: 29
Perdue pegboard [6]: 37
Kinetic function (/29) [6]: 13
Oculomotor disorder (/6) [6]: 0
Posture and gait disturbance: 7 items (/34) [6]: 16
Posture and gait disturbance: gait speed [6]: 1
Posture and gait disturbance: spread feet [6]: 2
Posture and gait disturbance: standing eyes open [6]: 3
Posture and gait disturbance: walking [6]: 3
Speech disorder (/8) [6]: 2
Total ICARS (/100) [6]: 31
Kinetic function (/29) [7]: 7
Oculomotor disorder (/6) [7]: 2
Posture and gait disturbance: 7 items (/34) [7]: 27
Posture and gait disturbance: gait speed [7]: 3
Posture and gait disturbance: spread feet [7]: 2
Posture and gait disturbance: standing eyes open [7]: 4
Posture and gait disturbance: walking [7]: 7
Speech disorder (/8) [7]: 0
Total ICARS (/100) [7]: 37
Observation (patient one, DFP 20 mg/kg, 5 mth, listed as DFP): improved gait, writing, delicate movements, can move them; also recorded: toes, feels their feet, warming up of feet
Kinetic function (/29) [8]: 8
Oculomotor disorder (/6) [8]: 2
Posture and gait disturbance: 7 items (/34) [8]: 28
Posture and gait disturbance: gait speed [8]: 3
Posture and gait disturbance: spread feet [8]: 3
Posture and gait disturbance: standing eyes open [8]: 4
Posture and gait disturbance: walking [8]: 7
Speech disorder (/8) [8]: 1
Total ICARS (/100) [8]: 39
Observation (patient seven, DFP 20 mg/kg, 5 mth, listed as DFP): improved gait, writing, delicate movements, can move them; also recorded: toes, feels their feet, warming up of feet
Observation (patient six, DFP 30 mg/kg, 1 mth): improved gait and standing, no more constipation
Kinetic function (/29) [9]: 9
Oculomotor disorder (/6) [9]: 0
Posture and gait disturbance: 7 items (/34) [9]: 17
Posture and gait disturbance: gait speed [9]: 1
Posture and gait disturbance: spread feet [9]: 2
Posture and gait disturbance: standing eyes open [9]: 2
Posture and gait disturbance: walking [9]: 7
Speech disorder (/8) [9]: 0
Total ICARS (/100) [9]: 26
Perdue pegboard [9]: 39
Perdue pegboard [10]: 52
Kinetic function (/29) [10]: 9
Oculomotor disorder (/6) [10]: 0
Posture and gait disturbance: 7 items (/34) [10]: 20
Posture and gait disturbance: gait speed [10]: 1
Posture and gait disturbance: spread feet [10]: 2
Posture and gait disturbance: standing eyes open [10]: 3
Posture and gait disturbance: walking [10]: 7
Speech disorder (/8) [10]: 0
Total ICARS (/100) [10]: 29
Kinetic function (/29) [11]: 11
Oculomotor disorder (/6) [11]: 0
Posture and gait disturbance: 7 items (/34) [11]: 16
Posture and gait disturbance: gait speed [11]: 2
Posture and gait disturbance: spread feet [11]: 3
Posture and gait disturbance: standing eyes open [11]: 4
Posture and gait disturbance: walking [11]: 7
Speech disorder (/8) [11]: 2
Total ICARS (/100) [11]: 29
Perdue pegboard [11]: 44
Perdue pegboard [12]: 37
Kinetic function (/29) [12]: 11
Oculomotor disorder (/6) [12]: 0
Posture and gait disturbance: 7 items (/34) [12]: 17
Posture and gait disturbance: gait speed [12]: 2
Posture and gait disturbance: spread feet [12]: 3
Posture and gait disturbance: standing eyes open [12]: 5
Posture and gait disturbance: walking [12]: 7
Speech disorder (/8) [12]: 3
Total ICARS (/100) [12]: 31
Observation (patient two, DFP 20 mg/kg, 3 mth): no more fatigue, improved delicate movements
Kinetic function (/29) [13]: 21
Oculomotor disorder (/6) [13]: 2
Posture and gait disturbance: 7 items (/34) [13]: 32
Posture and gait disturbance: gait speed [13]: 4
Posture and gait disturbance: spread feet [13]: 4
Posture and gait disturbance: standing eyes open [13]: 6
Posture and gait disturbance: walking [13]: 7
Speech disorder (/8) [13]: 4
Total ICARS (/100) [13]: 59
Kinetic function (/29) [14]: 21
Oculomotor disorder (/6) [14]: 3
Posture and gait disturbance: 7 items (/34) [14]: 33
Posture and gait disturbance: gait speed [14]: 4
Posture and gait disturbance: spread feet [14]: 4
Posture and gait disturbance: standing eyes open [14]: 6
Posture and gait disturbance: walking [14]: 7
Speech disorder (/8) [14]: 4
Total ICARS (/100) [14]: 61
